Patent publication US20050059745A1, “Antiviral therapy” (priority 1999, published 2005)

Assays:
[1] = Toxicity determinations of anti-viral compounds (Table 3); format: cell-based
HIV-1 [2] = conditions: Table 3
Procedure: MDM, and PBMC, were incubated with HIV at a multiplicity of infection of 0.02, and 0.006 or 0.001, respectively. After two hours cells are washed to remove unbound virus and cultured for 4 to 7 days in different concentrations of the drug under investigation. On day 4, 5 and 7, 0.01 ml of supernatant is removed from the culture and virus in culture supernatant is inactivated in a final concentration of 0.05% empigen (Calbiochem-Novabiochem Co., La Jolla, Calif.). The presence of HIV-1 in the inactivated supernatant is monitored by checking for the p24-core antigen using the enzyme-linked immunosorbent assay (ELISA) system of John Moore.

PBMC = PBMC viability, WST-1 cytotoxicity assay; format: cell-based, human; conditions: 5 days incubation
Procedure: FIG. 5—PBMC were obtained and stimulated as described in legend of FIG. 4. […] After a 5 days incubation period, cellular viability was assessed by WST-1 cytotoxicity assay where viable cells convert WST-1 into a coloured formazan dye that can be measured spectrophotometrically.
Cell viability is assessed with WST-1 assay. Cells are incubated with the tetrazolium salt WST-1 (4-[3-(4-lodophenyl)-2-(4-nitrophenyl)-2H-5-tetrazolio]-1,3-benzene disulfonate) for 2 hours at 37° C. During this time viable cells convert WST-1 into water-soluble formazan dyes. The OD of the supernatant is measured at 550 nm.

HIV-1Ba-L [3] = assay: HIV-1Ba-L replication in acutely infected monocyte-derived macrophages, p24 ELISA; format: cell-based; conditions: 30 μM APHS, acutely infected MDM, moi 0.02
Procedure: Concentrations above 0.3 μM APHS inhibit p24 production. 30 μM APHS inhibits HIV-1 replication by 88%.
Cells are washed twice and monocytes are purified by countercurrent centrifugal elutriation.

HIV-1 [4] = conditions: PBMC, FIG. 4
Procedure: (§1) FIG. 4—Peripheral blood mononuclear cells (PBMC) were isolated from heparinized blood from HIV-1-, HIV-2-, and hepatitis B-seronegative donors and obtained on Ficoll-Hypaque density gradients. Cells were washed twice, stimulated with 5 mg/ml phytohemagglutinin (PHA), and cultured in RPMI-1640 medium supplemented with 5 mM Hepes, 19 mM sodium bicarbonate, 10 mg/mL gentamycin, and 10% heat-inactivated fetal calf serum at a concentration of 2×10^6 cells/ml. After 3 days of incubation stimulated PBMC were recovered from the flasks and infected for 2 hours with (a) HIV-1AT at a multiplicity of infection of 0.001, (b) HIV-1BaL at a multiplicity of infection of 0.006 and (c) HIV-1BaL or HIV-1AT at a multiplicity of infection of 0.01 or 0.001, respectively. HIV-infected and mock-infected PBMC were washed twice to remove unbound virus and cultured for 4 to 7 days in different concentrations of APHS. After 4 and 5 days of incubation samples of culture supernatant were collected and p24-core antigen production was quantified using the enzyme-linked immunosorbent assay (ELISA) system of John Moore.

HIV-1Ba-L [5] = assay: HIV-1 production of chronically infected PBMC, p24 ELISA; format: cell-based; conditions: APHS added 5 days after infection, 2 days incubation (FIG. 6B)
Procedure: (A, B) Peripheral blood mononuclear cells (PBMC) were isolated from heparinized blood from HIV-1-, HIV-2-, and hepatitis B- seronegative donors and obtained on Ficoll-Hypaque density gradients. Cells were washed twice, stimulated with 5 μg/ml phytohemagglutinin (PHA), and cultured in RPMI-1640 medium supplemented with 5 mM Hepes, 19 mM sodium bicarbonate, 10 μg/mL gentamycin, and 10% heat-inactivated fetal calf serum (PBMC culture medium) at a concentration of 2×10^6 cells/ml. After 3 days of incubation stimulated PBMC were recovered from the flasks and infected for 2 hours with HIV-1Ba-L at a multiplicity of infection of 0.01. Afterwards, HIV-infected and mock-infected PBMC were washed twice to remove unbound virus. (A) PBMC were cultured at a density of 6×10^5 cells/well with different concentrations of APHS and after 5 days of incubation samples of culture supernatant were collected. (B) PBMC were cultured in suspension at a concentration of 2×10^6 cells/ml in Teflon flasks in PBMC culture medium. […] After 2 days of incubation samples of culture supernatant were collected. p24-core antigen production was quantified using the enzyme-linked immunosorbent assay (ELISA) system of John Moore. […]

HIV-1Ba-L [6] = assay: HIV-1 production by chronically infected MDM, p24 ELISA; format: cell-based; conditions: APHS added 5 days after infection, 2 days incubation (FIG. 6D)
[7] = system: drug-resistant HIV strains; conditions: drug-resistant vs sensitive strain
HIV-1BaL = HIV-1BaL replication in acutely infected PHA-stimulated PBMC, p24 ELISA; format: cell-based
Procedure: as §1
Peripheral blood mononuclear cell (PBMC) fractions are isolated from heparinised blood from HIV-1-, HIV-2- and hepatitis B- seronegative donors (Blood-bank, Utrecht, the Netherlands) by Ficoll-Isopaque gradient separation. Cells are washed twice, stimulated with 4 μg/ml phytohemagglutinin (PHA), and cultured in RPMI-1640 medium supplemented with 5 mM Hepes, 19 mM sodium bicarbonate, 10 μg/ml gentamycin, and 10% heat-inactivated fetal calf serum at a concentration of 1×10^6 cells/ml.
(A, B) Peripheral blood mononuclear cells (PBMC) were isolated from heparinized blood from HIV-1-, HIV-2-, and hepatitis B- seronegative donors and obtained on Ficoll-Hypaque density gradients. […] After 2 days of incubation samples of culture supernatant were collected. p24-core antigen production was quantified using the enzyme-linked immunosorbent assay (ELISA) system of John Moore.

[8] = system: monocyte-derived macrophages (MDM); assay: MDM viability, MTT cytotoxicity assay; format: cell-based, human; conditions: 4 day incubation
Procedure: FIG. 3—Monocyte-derived macrophages (MDM) were obtained like described in legend of FIG. 2. […] After a 4 day incubation period, cellular viability was assessed by MTT cytotoxicity assay where viable cells convert MTT into a colored formazan dye that can be measured spectrophotometrically.
Cell viability is assessed by the MTT assay. In short, cells are incubated with MTT 3-(4,5-dimethylthiazol-2-yl)-2,5-diphenyltetrazollumbromide (Sigma) for 2 hours at 37° C. During this time viable cells convert MTT into […] formazan dyes. Afterwards crystals are solubilized with a solution containing isopropanol. The OD of the supernatant is measured at 550 nm.
Monocyte-derived macrophages (MDM) were obtained like described above. […] After a 4 days incubation period cellular viability was assessed by MTT cytotoxicity assay where viable cells convert MTT into a colored formazan dye that can be measured spectrophotometrically.

Structure (SMILES): CCCCC#CCSc1ccccc1OCCCC [BPHS]
- not toxic at [1]: 30 µM
- IC50 (HIV-1 [2]): 40 µM

Structure (SMILES): CCCCC#CCSc1ccccc1OC(C)=O [APHS, o-(acetoxy-phenyl)hept-2-ynyl sulfide]
- not toxic at [1]: 30 µM
- concentrations found to reduce viability (WST-1) (PBMC): ≥ 100 µM
- IC50 (HIV-1 [2]): 10 µM
- inhibition of HIV-1 replication (HIV-1Ba-L [3]): 88%
- APHS concentrations that inhibit HIV-1 production (HIV-1 [4]): above 1 μM
- inhibition of HIV-1 production of chronically infected PBMCs (HIV-1Ba-L [5]): does not inhibit
- inhibition of HIV-1 production by chronically infected MDM (HIV-1Ba-L [6]): does not inhibit
- inhibitory activity against drug resistant strains relative to a sensitive strain [7]: two- to four-fold higher
- inhibition of HIV-1BaL production (HIV-1BaL; 1 μM APHS, PBMC, lower infectivity (FIG. 4c)): 50%
- inhibition of HIV-1Ba-L replication (HIV-1BaL; 30 μM APHS, acutely infected PBMC, moi 0.01 (FIG. 6A)): 100%
- inhibition of HIV-1BaL replication (HIV-1BaL; PBMC, FIG. 4): 100%
- APHS concentrations that inhibit HIV-1Ba-L replication (HIV-1BaL; acutely infected PBMC, moi 0.01, 5 days (FIG. 6A)): above 3 μM
- cytotoxicity (MTT) [8]: None of the tested concentrations of APHS was found to be cytotoxic
